Results on 24 molecules are retold here after patent US20250114338A1, “TETRAHYDRO-PYRIDO[3,4-b]INDOLE ESTROGEN RECEPTOR MODULATORS AND USES THEREOF” (Genentech, Inc., priority 2014, published 2025).

In the first assay the test system is ER-alpha MCF7. Description: ER-alpha MCF7 HCS EC50; stated as measured by in vitro cell proliferation assays of Examples 902 and 903. The assay is classed as cell-based. The note with it: Homo sapiens, MCF7, MCF7 cells; Table 2. The procedure, abridged:
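MCF7 cells seeded 1000-2000 cells/well for 16 h, then treated with nine-point 1:2 DMSO dilution series in quadruplicate at 37 °C, 5% CO2 for 4 days. Viable cells quantified by CellTiter-Glo ATP luminescence; EC50 calculated. Controls: fulvestrant at final 100 nM, DMSO 0.2% v/v.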
With `C[C@@H]1Cc2c([nH]c3ccccc23)[C@@H](c2c(F)cc(OCCN3CC(CF)C3)cc2F)N1C(=O)C1CC1F` (stereo partly drawn) [Example 183, ((1R,3R)-1-(2,6-difluoro-4-(2-(3-(fluoromethyl)azetidin-1-yl)ethoxy)phenyl)-3-methyl-3,4-dihydro-1H-pyrido[3,4-b]indol-2(9H)-yl)(2-fluorocyclopropyl)methanone], the EC50 (commonly the concentration at which the effect is half-maximal) came out at 4 nM.
On to `C[C@@H]1Cc2c([nH]c3ccccc23)[C@@H](c2c(F)cc(OC3CN(CCCF)C3)cc2F)N1CC1(CO)CC1` [Example 228, [1-[[(1R,3R)-1-[2,6-difluoro-4-[1-(3-fluoropropyl)azetidin-3-yl]oxy-phenyl]-3-methyl-1,3,4,9-tetrahydropyrido[3,4-b]indol-2-yl]methyl]cyclopropyl] methanol], for which the EC50 stood at 1 nM.
As to `C[C@@H]1Cc2c([nH]c3ccccc23)[C@@H](c2c(F)cc(OCCN3CC(CF)C3)cc2F)N1CC1(F)CCC1` [Example 153, (1R,3R)-1-[2,6-difluoro-4-[2-[3-(fluoromethyl)azetidin-1-yl]ethoxy]phenyl]-2-[(1-fluorocyclobutyl)methyl]-3-methyl-1,3,4,9-tetrahydropyrido[3,4-b]indole], the concentration giving a half-maximal response (EC50) is 0.221 nM.
In the case of `C[C@H]1Cc2c([nH]c3cc(F)ccc23)[C@H](c2c(F)cc(OC3CN(CCCF)C3)cc2F)N1CC(C)(C)F` [Example 252, (1S,3S)-1-(2,6-difluoro-4-((1-(3-fluoropropyl)azetidin-3-yl)oxy)phenyl)-7-fluoro-2-(2-fluoro-2-methylpropyl)-3-methyl-2,3,4,9-tetrahydro-1H-pyrido[3,4-b]indole], the EC50 was 50 nM.
As to `C[C@@H]1Cc2c([nH]c3c(F)cccc23)[C@@H](c2c(F)cc(OC3CN(CCCF)C3)cc2F)N1CC(C)(C)F` [Example 261, (1R,3R)-1-(2,6-difluoro-4-((1-(3-fluoropropyl)azetidin-3-yl)oxy)phenyl)-8-fluoro-2-(2-fluoro-2-methylpropyl)-3-methyl-2,3,4,9-tetrahydro-1H-pyrido[3,4-b]indole], the EC50 amounted to 0.28 nM.
For `C[C@@H]1Cc2c([nH]c3ccccc23)[C@@H](c2c(F)cc(OC3CN(CC4CCC4)C3)cc2F)N1CC(C)(C)F` [Example 189, (1R,3R)-1-[4-[1-(cyclobutylmethyl)azetidin-3-yl]oxy-2,6-difluoro-phenyl]-2-(2-fluoro-2-methyl-propyl)-3-methyl-1,3,4,9-tetrahydropyrido[3,4-b]indole], the EC50 stood at 1 nM.
With `C[C@H]1Cc2c([nH]c3ccc(F)cc23)[C@H](c2c(F)cc(NC3CN(CCCF)C3)cc2F)N1S(C)(=O)=O` [Example 388, N-(3,5-difluoro-4-((1S,3S)-6-fluoro-3-methyl-2-(methylsulfonyl)-2,3,4,9-tetrahydro-1H-pyrido[3,4-b]indol-1-yl)phenyl)-1-(3-fluoropropyl)azetidin-3-amine], the EC50 came to 19 nM.
On to `C[C@@H]1Cc2c([nH]c3ccccc23)[C@@H](c2c(F)cc(OC3CN(CCCF)C3)cc2F)N1CC(F)F` [Example 303, (1R,3R)-2-(2,2-difluoroethyl)-1-[2,6-difluoro-4-[1-(3-fluoropropyl)azetidin-3-yl]oxy-phenyl]-3-methyl-1,3,4,9-tetrahydropyrido[3,4-b]indole], for which the EC50 came to 0.0482 nM.
The same measure, in the same setting: the figure for `C[C@@H]1Cc2c([nH]c3ccccc23)[C@@H](c2cc(F)c(OC3CN(CCCF)C3)cc2F)N1CC(C)(C)F` [Example 339, (1R,3R)-1-[2,5-difluoro-4-[1-(3-fluoropropyl)azetidin-3-yl]oxy-phenyl]-2-(2-fluoro-2-methyl-propyl)-3-methyl-1,3,4,9-tetrahydropyrido[3,4-b]indole] is 1 nM; for `C[C@@H]1Cc2c([nH]c3ccc(F)cc23)[C@@H](c2c(F)cc(OCCN3CC(CF)C3)cc2F)N1CC(C)(C)F` [Example 241, (1R,3R)-1-(2,6-difluoro-4-(2-(3-(fluoromethyl)azetidin-1-yl)ethoxy)phenyl)-6-fluoro-2-(2-fluoro-2-methylpropyl)-3-methyl-2,3,4,9-tetrahydro-1H-pyrido[3,4-b]indole] it is 0.381 nM; for `C[C@@H]1Cc2c([nH]c3ccccc23)[C@H](c2c(F)cc(OCCN3CC(CF)C3)cc2F)N1CC(F)(F)F` [Example 175, (1S,3R)-1-[2,6-difluoro-4-[2-[3-(fluoromethyl)azetidin-1-yl]ethoxy]phenyl]-3-methyl-2-(2,2,2-trifluoroethyl)-1,3,4,9-tetrahydropyrido[3,4-b]indole] it is 14 nM.
Consider `C[C@@H]1Cc2c([nH]c3ccccc23)[C@@H](c2ccc(OC3CN(CCCF)C3)cc2Cl)N1CC(C)(C)F` [Example 211, (1R,3R)-1-[2-chloro-4-[1-(3-fluoropropyl)azetidin-3-yl]oxy-phenyl]-2-(2-fluoro-2-methyl-propyl)-3-methyl-1,3,4,9-tetrahydropyrido[3,4-b]indole], for which the EC50 came out at 0.2 nM.
The same measure, in the same setting: under `C[C@@H]1Cc2c([nH]c3cc(F)ccc23)[C@@H](c2c(F)cc(NC3CN(CCCF)C3)cc2F)N1CC(F)(F)F` [Example 396, N-(3,5-difluoro-4-((1R,3R)-7-fluoro-3-methyl-2-(2,2,2-trifluoroethyl)-2,3,4,9-tetrahydro-1H-pyrido[3,4-b]indol-1-yl)phenyl)-1-(3-fluoropropyl)azetidin-3-amine] stands 0.11 nM.
The same measure, in the same setting: the figure for `C[C@@H]1Cc2c([nH]c3ccc(F)cc23)[C@@H](c2c(F)cc(OC3CN(CCCF)C3)cc2F)N1CC(F)(F)CO` [Example 363, 3-((1R,3R)-1-(2,6-difluoro-4-((1-(3-fluoropropyl)azetidin-3-yl)oxy)phenyl)-6-fluoro-3-methyl-1,3,4,9-tetrahydro-2H-pyrido[3,4-b]indol-2-yl)-2,2-difluoropropan-1-ol] is 0.166 nM; for `C[C@@H]1Cc2c([nH]c3ccccc23)[C@@H](c2c(F)cc(OCCN3CC(CF)C3)cc2F)N1C(=O)C1CCCC1` [Example 149, cyclopentyl-[(1R,3R)-1-[2,6-difluoro-4-[2-[3-(fluoromethyl)azetidin-1-yl]ethoxy]phenyl]-3-methyl-1,3,4,9-tetrahydropyrido[3,4-b]indol-2-yl]methanone] it is 2.16 nM; for `C[C@@H]1Cc2c([nH]c3ccccc23)[C@@H](c2c(F)cc(OC3CN(CCCF)C3)cc2F)N1CC1(F)COC1` [Example 411, (1R,3R)-1-(2,6-difluoro-4-(1-(3-fluoropropyl)azetidin-3-yloxy)phenyl)-2-((3-fluorooxetan-3-yl)methyl)-3-methyl-2,3,4,9-tetrahydro-1H-pyrido[3,4-b]indole] it is 0.07 nM.
As for `C[C@@H]1Cc2c([nH]c3ccccc23)[C@@H](c2c(F)cc(OCCN3CC(CF)C3)cc2F)N1C(=O)C1CCO1` (stereo partly drawn) [Example 219, ((1R,3R)-1-(2,6-difluoro-4-(2-(3-(fluoromethyl)azetidin-1-yl)ethoxy)phenyl)-3-methyl-1,3,4,9-tetrahydro-2H-pyrido[3,4-b]indol-2-yl)(oxetan-2-yl)methanone], the EC50 was found to be 35 nM.
For `CC1(C)Cc2c([nH]c3ccccc23)[C@H](c2c(F)cc(NC3CN(CCCF)C3)cc2F)N1CC(F)(F)CO` [Example 421, (S)-3-(1-(2,6-difluoro-4-((1-(3-fluoropropyl)azetidin-3-yl)amino)phenyl)-3,3-dimethyl-3,4-dihydro-1H-pyrido[3,4-b]indol-2(9H)-yl)-2,2-difluoropropan-1-ol], the EC50 came to 0.146 nM.
In the case of `C[C@@H]1Cc2c([nH]c3ccccc23)[C@@H](c2c(F)cc(OC3CN(CCCCCF)C3)cc2F)N1CC(C)(C)F` [Example 335, (1R,3R)-1-[2,6-difluoro-4-[1-(5-fluoropentyl)azetidin-3-yl]oxy-phenyl]-2-(2-fluoro-2-methyl-propyl)-3-methyl-1,3,4,9-tetrahydropyrido[3,4-b]indole], the EC50 was 0.442 nM.
On the same count and under the same terms, under `C[C@H]1Cc2c([nH]c3cc(F)ccc23)[C@H](c2c(F)cc(NC3CN(CCCF)C3)cc2F)N1C[C@@](C)(F)CO` [Example 415, (R)-3-((1S,3S)-1-(2,6-difluoro-4-((1-(3-fluoropropyl)azetidin-3-yl)amino)phenyl)-7-fluoro-3-methyl-3,4-dihydro-1H-pyrido[3,4-b]indol-2(9H)-yl)-2-fluoro-2-methylpropan-1-ol] stands 9.5 nM; under `C[C@@H]1Cc2c([nH]c3ccccc23)[C@@H](c2c(F)cc(OCCCN3CC(CF)C3)cc2F)N1CC(C)(C)F` [Example 143, (1R,3R)-1-[2,6-difluoro-4-[3-[3-(fluoromethyl)azetidin-1-yl]propoxy]phenyl]-2-(2-fluoro-2-methyl-propyl)-3-methyl-1,3,4,9-tetrahydropyrido[3,4-b]indole], 0.078 nM; under `C[C@H]1Cc2c([nH]c3cccc(F)c23)[C@H](c2c(F)cc(NC3CN(CCCF)C3)cc2F)N1C[C@@](C)(F)CO` [Example 399, (R)-3-((1S,3S)-1-(2,6-difluoro-4-((1-(3-fluoropropyl)azetidin-3-yl)amino)phenyl)-5-fluoro-3-methyl-3,4-dihydro-1H-pyrido[3,4-b]indol-2(9H)-yl)-2-fluoro-2-methylpropan-1-ol], 1.1 nM.
For the molecule `C[C@@H]1Cc2c([nH]c3ccccc23)[C@@H](c2ccc(OCCN3CC(CF)C3)cc2)N1C(=O)C(C)(C)F` [Example 221, 2-fluoro-1-[(1R,3R)-1-[4-[2-[3-(fluoromethyl)azetidin-1-yl]ethoxy]phenyl]-3-methyl-1,3,4,9-tetrahydropyrido[3,4-b]indol-2-yl]-2-methyl-propan-1-one], the concentration for a half-maximal effect (EC50) was found to be 180 nM.

Staying with this assay, now noted: MCF7 cells; Table 2.
With `C[C@@H]1Cc2c([nH]c3ccccc23)[C@@H](c2c(F)cc(OC3CN(C4CC(CF)C4)C3)cc2F)N1CC(C)(C)F` (stereo partly drawn) [Example 391, (1R,3R)-1-(2,6-difluoro-4-((1- cis-(3-(fluoromethyl)cyclobutyl)azetidin-3-yl)oxy)phenyl)-2-(2-fluoro-2-methylpropyl)-3-methyl-2,3,4,9-tetrahydro-1H-pyrido[3,4-b]indole], the half-maximal effective concentration (EC50) turned out to be 0.15 nM.
